Assay results from ChEMBL document CHEMBL1201862, “PubChem BioAssay data set” (2004).
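Exposure lasted 48 hours, with cells grown in 96-well plates and compounds tested at five concentrations. GI50 = concentration required for 50% inhibition of growth.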 Active and inactive are the calls of the source. Cut-off read from the data, not from the text of the source: active = GI50 up to about 1.1 µM and inactive = higher.

What was measured:
Experiment in all cases: NCI tumour cell line growth inhibition, 48 h
SK-MEL-5 = test system: SK-MEL-5
SR = test system: SR
Hs-578T = test system: Hs-578T
IGROV-1 = test system: IGROV-1
BT-549 = test system: BT-549
MDA-N = test system: MDA-N
M14 = test system: M14
RPMI-8226 = test system: RPMI-8226
EKVX = test system: EKVX
NCI-H23 = test system: NCI-H23
ACHN = test system: ACHN
CCRF-CEM = test system: CCRF-CEM
MDA-MB-435 = test system: MDA-MB-435
SK-MEL-2 = test system: SK-MEL-2
PC-3 = test system: PC-3
U-251 = test system: U-251
MDA-MB-231 = test system: MDA-MB-231
HT-29 = test system: HT-29
K562 = test system: K562

Measured: GI50

O=c1[nH]c2nc3ccccc3c(=O)n2/c1=C/c1ccc(O)cc1
inactive: SK-MEL-5 52.7 µM | SR 16.9 µM | Hs-578T 18.6 µM | IGROV-1 39.2 µM | BT-549 32.1 µM | MDA-N 32.3 µM | M14 36.8 µM | RPMI-8226 16.9 µM | EKVX 54.3 µM | NCI-H23 49 µM | ACHN 56.1 µM | CCRF-CEM 20.8 µM | MDA-MB-435 25.5 µM | SK-MEL-2 75.3 µM | PC-3 45.3 µM | U-251 26.2 µM | MDA-MB-231 60.3 µM | HT-29 24 µM

Nc1nccc(NCC2(CO)CCC2)n1
inactive: SK-MEL-5 > 100 µM | SR > 100 µM | Hs-578T > 100 µM | IGROV-1 > 100 µM | BT-549 > 100 µM | K562 > 100 µM | MDA-N > 100 µM | RPMI-8226 > 100 µM | EKVX > 100 µM | NCI-H23 > 100 µM | ACHN > 100 µM | CCRF-CEM > 100 µM | MDA-MB-435 > 100 µM | SK-MEL-2 > 100 µM | PC-3 > 100 µM | U-251 > 100 µM | MDA-MB-231 > 100 µM | HT-29 > 100 µM

NP1(Oc2ccc(F)cc2)=NP(N)(Oc2ccc(F)cc2)=NP(Oc2ccc(F)cc2)(Oc2ccc(F)cc2)=N1 (stereo not given)
inactive: SK-MEL-5 4.91 µM | SR 4.56 µM | Hs-578T 5.64 µM | IGROV-1 2.54 µM | BT-549 2.23 µM | MDA-N 6.47 µM | M14 6.9 µM | RPMI-8226 4.59 µM | EKVX 6.82 µM | NCI-H23 11.2 µM | ACHN 3.32 µM | CCRF-CEM 6.21 µM | MDA-MB-435 7.01 µM | PC-3 4.85 µM | U-251 4.78 µM | MDA-MB-231 11.4 µM | HT-29 5.43 µM

C(/C=N/N=C1NCCCN1)=N\N=C1NCCCN1
inactive: SK-MEL-5 > 100 µM | SR > 100 µM | Hs-578T > 100 µM | IGROV-1 > 100 µM | BT-549 > 100 µM | K562 > 100 µM | MDA-N > 100 µM | M14 > 100 µM | EKVX > 100 µM | NCI-H23 > 100 µM | ACHN > 100 µM | CCRF-CEM > 100 µM | MDA-MB-435 > 100 µM | PC-3 > 100 µM | U-251 > 100 µM | MDA-MB-231 > 100 µM | HT-29 > 100 µM
